Legend:
Test in all cases: CellTiter-Glo cell viability assay
Assay type in all cases: cell-based
NCI-H209 = details: for IC50: Homo sapiens, NCI-H209, LUNG, Carcinoma, 72 hours
Description: (§1) Cell viability in the presence of varying concentrations of the above listed compounds at different time points was used to assess cytotoxicity and the effect of the compounds on cell proliferation.
(§2) Cell viability was measured by the CellTiter-Glo® cell viability assay from Promega (Madison, Wis.). The CellTiter-Glo® Luminescent Cell Viability Assay is a homogeneous method to determine the number of viable cells in culture based on quantitation of the ATP present, which signals the presence of metabolically active cells. Following treatment, CellTiter-Glo® is added to treatment wells and incubated at 37° C. luminescence values were measured at using a Molecular Devices Spectramax microplate reader
(§3) Cells were grown to 70% confluency, trypsinized, counted, and seeded in 96 well flat-bottom plates at a final concentration of 2.5×10^3-5×10^3 cells/well (Day 0). Cells were allowed to incubate in growth media for 24 hours. Treatment with the test agents or standard agents began on Day 1 and continued for 72 hours. At the 72-hour timepoint, treatment containing media was removed. Viable cell numbers are quantified by the CellTiter-Glo® cell viability assay as described above. Results from these studies were used to calculate an IC50 value (concentration of drug that inhibits cell growth by 50 percent of control) for each compound.
(§4) For single agent and combination studies, data from each experiment was collected and expressed as % Cell Growth using the following calculation: % Cell Growth=(ftest/fvehicle)×100
(§5) Where test is the fluorescence of the tested sample, and fvehicle is the fluorescence of the vehicle in which the drug is dissolved. Dose response graphs and IC50 values were generated using Prism 6 software (GraphPad) using the following equation: Y=(Top-Bottom)/(1+10^((logIC^50^-X)-HillSlope))

Y79 = details: for IC50: Homo sapiens, Y79, RETINOBLASTOMA, Retina, 72 hours
Description: as §1, §2, §3, §4, §5

AN3CA = details: for IC50: Homo sapiens, AN3-CA, AN3CA, ENDOMETRIAL, 72 hours
Description: as §1, §2, §3, §4, §5

OCI-Ly3 = details: for IC50: Homo sapiens, OCI-Ly3, HEMATOPIETIC, DLBCL, 72 hours
Description: as §1, §2, §3, §4, §5

YAPC = details: for IC50: Homo sapiens, YAPC, PANCREAS, Pancreatic, 72 hours
Description: as §1, §2, §3, §4, §5

H522 = details: for IC50: Homo sapiens, NCI-H522, H522, LUNG, NSCLC, 72 hours
Description: as §1, §2, §3, §4, §5

LK-2 = details: for IC50: Homo sapiens, LK-2, LUNG, Carcinoma, 72 hours
Description: as §1, §2, §3, §4, §5

BxPC-3 = details: for IC50: Homo sapiens, BxPC-3, PANCREAS, Pancreatic, 72 hours
Description: as §1, §2, §3, §4, §5

Hs852T = details: for IC50: Hs852T, MELANOMA, 72 hours
Description: as §1, §2, §3, §4, §5

RPMI-8226 = details: for IC50: Homo sapiens, RPMI-8226, HEMATOPIETIC, MM, 72 hours
Description: as §1, §2, §3, §4, §5

NCI-H820 = details: for IC50: NCI-H820, LUNG, NSCLC, 72 hours
Description: as §1, §2, §3, §4, §5

HCC1806 = details: for IC50: Homo sapiens, HCC1806, BREAST, acantholytic squamous cell carcinoma, 72 hours
Description: as §1, §2, §3, §4, §5

L363 = details: for IC50: Homo sapiens, L-363, L363, HEMATOPIETIC, MM, 72 hours
Description: as §1, §2, §3, §4, §5

FaDu = details: for IC50: Homo sapiens, FaDu, H&N SQUAMOUS CELL, Pharynx, 72 hours
Description: as §1, §2, §3, §4, §5

H660 = details: for IC50: NCI-H660, H660, PROSTATE, LN Met, 72 hours
Description: as §1, §2, §3, §4, §5

MDA-MB-468 = details: for IC50: Homo sapiens, MDA-MB-468, BREAST, TNBC, 72 hours
Description: as §1, §2, §3, §4, §5

CCRF-CEM = details: for IC50: Homo sapiens, CCRF-CEM, HEMATOPIETIC, ALL, 72 hours
Description: as §1, §2, §3, §4, §5

MSTO-211H = details: for IC50: Homo sapiens, MSTO-211H, LUNG, Mesothelioma, 72 hours
Description: as §1, §2, §3, §4, §5

A549 = details: for IC50: Homo sapiens, A549, LUNG, NSCLC, 72 hours
Description: as §1, §2, §3, §4, §5

SUM149PT = details: for IC50: Homo sapiens, SUM149PT, BREAST, IBC, 72 hours
Description: as §1, §2, §3, §4, §5

H460 = details: for IC50: Homo sapiens, NCI-H460, H460, LUNG, NSCLC, 72 hours
Description: as §1, §2, §3, §4, §5

SKUT-1 = details: for IC50: Homo sapiens, SK-UT-1, SKUT-1, ENDOMETRIAL, Uterine, 72 hours
Description: as §1, §2, §3, §4, §5

KMM-1 = details: for IC50: KMM-1, HEMATOPIETIC, MM, 72 hours
Description: as §1, §2, §3, §4, §5

MOLP-8 = details: for IC50: Homo sapiens, MOLP-8, HEMATOPIETIC, MM, 72 hours
Description: as §1, §2, §3, §4, §5

BT474 = details: for IC50: Homo sapiens, BT-474, BT474, BREAST, Ductal Carcinoma, 72 hours
Description: as §1, §2, §3, §4, §5

SMILES: CC[C@H](C(=O)Nc1ncc(C(=O)NO)s1)c1ccc(OC)cc1 [#1a, (S)—N-hydroxy-2-(2-(4-methoxyphenyl)butanamido)thiazole-5-carboxamide]
- IC50 (NCI-H209): 16 nM
- #1/#1a (NCI-H209; ratio of IC50, NCI-H209): 6.88
- #1b/#1a (NCI-H209; ratio of IC50, NCI-H209): 15.69
- IC50 (Y79): 87 nM
- #1/#1a (Y79; ratio of IC50, Y79): 4.17
- #1b/#1a (Y79; ratio of IC50, Y79): 7.25
- IC50 (AN3CA): 47 nM
- #1/#1a (AN3CA; ratio of IC50, AN3CA): 1.4
- #1b/#1a (AN3CA; ratio of IC50, AN3CA): 4.87
- IC50 (OCI-Ly3): 35 nM
- #1/#1a (OCI-Ly3; ratio of IC50, OCI-Ly3): 1.86
- #1b/#1a (OCI-Ly3; ratio of IC50, OCI-Ly3): 4.86
- IC50 (YAPC): 215 nM
- #1/#1a (YAPC; ratio of IC50, YAPC): 2.03
- #1b/#1a (YAPC; ratio of IC50, YAPC): 9.13
- IC50 (H522): 115 nM
- #1/#1a (H522; ratio of IC50, H522): 1.55
- #1b/#1a (H522; ratio of IC50, H522): 8.5
- IC50 (LK-2): 40 nM
- #1/#1a (LK-2; ratio of IC50, LK-2): 4.9
- #1b/#1a (LK-2; ratio of IC50, LK-2): 9.95
- IC50 (BxPC-3): 174 nM
- #1/#1a (BxPC-3; ratio of IC50, BxPC-3): 1.44
- #1b/#1a (BxPC-3; ratio of IC50, BxPC-3): 6.3
- IC50 (Hs852T): 54 nM
- #1/#1a (Hs852T; ratio of IC50, Hs852T): 9.07
- #1b/#1a (Hs852T; ratio of IC50, Hs852T): 22.96
- IC50 (RPMI-8226): 14 nM
- #1/#1a (RPMI-8226; ratio of IC50, RPMI-8226): 2.21
- #1b/#1a (RPMI-8226; ratio of IC50, RPMI-8226): 9.21
- IC50 (NCI-H820): 54 nM
- #1/#1a (NCI-H820; ratio of IC50, NCI-H820): 1.57
- #1b/#1a (NCI-H820; ratio of IC50, NCI-H820): 7.37
- IC50 (HCC1806): 71 nM
- #1/#1a (HCC1806; ratio of IC50, HCC1806): 2.52
- #1b/#1a (HCC1806; ratio of IC50, HCC1806): 6.55
- IC50 (L363): 21 nM
- #1/#1a (L363; ratio of IC50, L363): 2.1
- #1b/#1a (L363; ratio of IC50, L363): 8.1
- IC50 (FaDu): 40 nM
- #1/#1a (FaDu; ratio of IC50, FaDu): 0.25
- #1b/#1a (FaDu; ratio of IC50, FaDu): 8.28
- IC50 (H660): 28 nM
- #1/#1a (H660; ratio of IC50, H660): 5.64
- #1b/#1a (H660; ratio of IC50, H660): 15.11
- IC50 (MDA-MB-468): 60 nM
- #1/#1a (MDA-MB-468; ratio of IC50, MDA-MB-468): 1.13
- #1b/#1a (MDA-MB-468; ratio of IC50, MDA-MB-468): 9.17
- IC50 (CCRF-CEM): 14 nM
- #1/#1a (CCRF-CEM; ratio of IC50, CCRF-CEM): 2
- #1b/#1a (CCRF-CEM; ratio of IC50, CCRF-CEM): 8.07
- IC50 (MSTO-211H): 52 nM
- #1/#1a (MSTO-211H; ratio of IC50, MSTO-211H): 2.46
- #1b/#1a (MSTO-211H; ratio of IC50, MSTO-211H): 6.77
- IC50 (A549): 52 nM
- #1/#1a (A549; ratio of IC50, A549): 1.46
- #1b/#1a (A549; ratio of IC50, A549): 7.65
- IC50 (SUM149PT): 74 nM
- #1/#1a (SUM149PT; ratio of IC50, SUM149PT): 2.58
- #1b/#1a (SUM149PT; ratio of IC50, SUM149PT): 8.27
- IC50 (H460): 50 nM
- #1/#1a (H460; ratio of IC50, H460): 1.58
- #1b/#1a (H460; ratio of IC50, H460): 7.26
- IC50 (SKUT-1): 215 nM
- #1/#1a (SKUT-1; ratio of IC50, SKUT-1): 1.07
- #1b/#1a (SKUT-1; ratio of IC50, SKUT-1): 5.86
- IC50 (KMM-1): 19 nM
- #1/#1a (KMM-1; ratio of IC50, KMM-1): 1.05
- #1b/#1a (KMM-1; ratio of IC50, KMM-1): 5.53
- IC50 (MOLP-8): 13 nM
- #1/#1a (MOLP-8; ratio of IC50, MOLP-8): 1
- #1b/#1a (MOLP-8; ratio of IC50, MOLP-8): 2.46
- IC50 (BT474): 145 nM
- #1/#1a (BT474; ratio of IC50, BT474): 6.9
- #1b/#1a (BT474; ratio of IC50, BT474): 20.83

SMILES: CC[C@@H](C(=O)Nc1ncc(C(=O)NO)s1)c1ccc(OC)cc1 [#1b, (R)—N-hydroxy-2-(2-(4-methoxyphenyl)butanamido)thiazole-5-carboxamide]
- IC50 (NCI-H209): 251 nM
- IC50 (Y79): 631 nM
- IC50 (AN3CA): 229 nM
- IC50 (OCI-Ly3): 170 nM
- IC50 (YAPC): 1960 nM
- IC50 (H522): 977 nM
- IC50 (LK-2): 398 nM
- IC50 (BxPC-3): 1100 nM
- IC50 (Hs852T): 1240 nM
- IC50 (RPMI-8226): 129 nM
- IC50 (NCI-H820): 398 nM
- IC50 (HCC1806): 465 nM
- IC50 (L363): 170 nM
- IC50 (FaDu): 331 nM
- IC50 (H660): 423 nM
- IC50 (MDA-MB-468): 550 nM
- IC50 (CCRF-CEM): 113 nM
- IC50 (MSTO-211H): 352 nM
- IC50 (A549): 398 nM
- IC50 (SUM149PT): 612 nM
- IC50 (H460): 363 nM
- IC50 (SKUT-1): 1260 nM
- IC50 (KMM-1): 105 nM
- IC50 (MOLP-8): 32 nM
- IC50 (BT474): 3020 nM

SMILES: CCC(C(=O)Nc1ncc(C(=O)NO)s1)c1ccc(OC)cc1 (racemic) [#1, N-hydroxy-2-(2-(4-methoxyphenyl)butanamido)thiazole-5-carboxamide]
- IC50 (NCI-H209): 110 nM
- IC50 (Y79): 363 nM
- IC50 (AN3CA): 66 nM
- IC50 (OCI-Ly3): 65 nM
- IC50 (YAPC): 437 nM
- IC50 (H522): 178 nM
- IC50 (LK-2): 196 nM
- IC50 (BxPC-3): 251 nM
- IC50 (Hs852T): 490 nM
- IC50 (RPMI-8226): 31 nM
- IC50 (NCI-H820): 85 nM
- IC50 (HCC1806): 179 nM
- IC50 (L363): 44 nM
- IC50 (FaDu): 10 nM
- IC50 (H660): 158 nM
- IC50 (MDA-MB-468): 68 nM
- IC50 (CCRF-CEM): 28 nM
- IC50 (MSTO-211H): 128 nM
- IC50 (A549): 76 nM
- IC50 (SUM149PT): 191 nM
- IC50 (H460): 79 nM
- IC50 (SKUT-1): 229 nM
- IC50 (KMM-1): 20 nM
- IC50 (MOLP-8): 13 nM
- IC50 (BT474): 1000 nM

Reference: patent US11420947B2, “(S)-n-hydroxy-2-(2-(4-methoxyphenyl)butanamido)thiazole-5-carboxamide and pharmaceutically acceptable salts thereof” (TRANSLATIONAL DRUG DEVELOPMENT, LLC, priority 2018, dated 2022)
